Structures can show the parent of a compound that is named as a salt.
Key:
Assay type in all cases: in vivo
Male C57B1/6 mice = experiment: Food intake and body weight of male C57Bl/6 mice under restricted feeding (Example 3); conditions: for Post-treatment Food Intake (5 Hour): 5 hour meal; for food intake (in words): restricted feeding paradigm; for Change in Body weight % / Change in Body weight (grams ± SEM) / Post-treatment Body weight: restricted feeding
Experimental: Animals. […] Food was withheld for the remainder of each day. Because of the restricted feeding time, the mice eat less than under ad libitum food availability. Therefore, reduction of food intake in this model requires a drug effect sufficient to overcome the hunger stimulus provided by subnormal daily food intake. Drug Administration. Groups of 10 mice each (individually weighed and marked, divided into 5/cage and trained and monitored as above; were dosed once per day with Compound BI (100 mg/kg), rosiglitazone (3 mg/kg), both drugs, or vehicle by oral gavage at 8 AM for four consecutive days. Comparator groups receiving appetite modulators not suitable for oral dosing (PYY and cerulenin) received intraperitoneal injections at 8 AM for four consecutive days. […] [table]

Adiponectin = experiment: Serum adiponectin in db/db mice after two weeks (Example 4); conditions: for Adiponectin ± SD: db/db mice serum, compound alone 100 mg/kg; for effect on adiponectin with concurrent rosiglitazone (in words) / serum adiponectin, individual agents (in words): db/db mice; for effect on adiponectin with concurrent rosiglitazone (in words): 100 mg/kg + RSG 3 mg/kg; for serum adiponectin, individual agents (in words): agent alone
Excerpt: Adiponectin is an glycoprotein secreted from white adipose tissue. Adiponectin improves insulin sensitive in other tissues, e.g. muscle and liver, and is also protective against atherosclerosis. Thiazolidinedione antidiabetic agents such as rosiglitazone or pioglitazone act largely via action at the PPAR-gamma, a nuclear receptor involved in regulation of fuel metabolism. PPAR-gamma agonists enhance adiponectin production by adipose tissue, and this may contribute to their beneficial effects in diabetes and related metabolic disorders.
(§1) • 8. Vehicle (1% hydroxypropylmethylcellulose) • 9. Compound BI 100 mg/kg • 10. Rosiglitazone (RSG) 3 mg/kg • 11. Compound BI 100 mg/kg+RSG 3 mg/kg • 12. Compound CF 100 mg/kg • 13. Compound CF 100 mg/kg+RSG 3 mg/kg • 14. Compound CT 100 mg/kg+RSG 3 mg/kg • 15. […]
(§2) After two weeks, blood samples were collected from the retro-orbital sinus and processed for serum chemistry measurements.

db/db mice [1] = experiment: Serum glucose in db/db mice after two weeks (Example 4); conditions: compound alone 100 mg/kg
Experimental: as §1, §2

db/db mice [2] = experiment: Serum glucose in db/db mice, combinations with rosiglitazone or pioglitazone, 4 weeks (Example 5); conditions: 4 weeks oral once per day
Experimental: Male db/db mice have a defect in the receptor for the appetite-regulating protein leptin and consequently develop hyperphagia, obesity, insulin resistance, hyperglycemia, hypertriglyceridemia. Male db/db mice are an accepted animal model for Type II diabetes. The effect of a range of single daily doses of orally administered Compound BI was assessed in this model, and the efficacy of rosiglitazone alone and in combination with Compound BI was also examined.
Male C57BL/Ksola db/db mice (“db/db mice”) were obtained from Harlan (Indianapolis, Ind.) and allowed to acclimate for a minimum of one week.
Body weights and blood glucose levels were measured and animals were sorted groups of 6-7 mice with equivalent mean body weights in each group. […].
• 12. Vehicle • 13. Compound BI 100 mg/kg/day • 14. Rosiglitazone 3 mg/kg • 15. Rosiglitazone 3 mg/kg+Compound BI 100 mg/kg • 16. Pioglitazone 30 mg/kg • 17. Pioglitazone 30 mg/kg+Compound BI 100 mg/kg • 18. Pioglitazone 100 mg/kg • 19. Pioglitazone 100 mg/kg+Compound BI 100 mg/kg
Drug preparation: Compound BI was suspended in a vehicle comprising 1% aqueous hydroxypropylmethylcellulose, using a tissue homogenizer to minimize particle size and maximize uniformity of the suspension. Pioglitazone and rosiglitazone were suspended in the same vehicle after pulverization of commercial tablets of each of these drugs. Drug concentrations in the dosing suspension for each treatment group were adjusted according to body weights so that a constant volume of 0.4 ml provided appropropriate drug doses in all groups.
Drug Administration: Drugs were administered orally by gavage once per day for 28 days.
Blood sampling: For serum chemistry analysis, nonfasting blood samples (200 microliters) were obtained via the retro-orbital sinus and collected in serum separator tubes at 11 AM on day 28 after initiation of drug administration.

[3] = Cerulenin 30 mg/kg i.p. once per day
[4] = PYY 100 mg/kg i.p. once per day

| Molecule | food intake (in words) (Male C57B1/6 mice) | Adiponectin ± SD (Adiponectin) [micrograms/ml] | effect on adiponectin with concurrent rosiglitazone (in words) (Adiponectin) | serum adiponectin, individual agents (in words) (Adiponectin) | Glucose ± SD (db/db mice [1]) [mg/dL] | also measured |
| --- | --- | --- | --- | --- | --- | --- |
| C/C=C/C/C=C/CCC(=O)[C@H]1O[C@H]1C(N)=O [Cerulenin] | failed to have an effect | – | – | – | – | Post-treatment Food Intake (5 Hour) (Male C57B1/6 mice; [3]): 2.45 ± 0.10 grams; Change in Body weight % (Male C57B1/6 mice; [3]): +0.81 ± 0.49%; Change in Body weight (grams ± SEM) (Male C57B1/6 mice; [3]): +0.16 ± 0.10 grams; Post-treatment Body weight (Male C57B1/6 mice; [3]): 21.18 ± 0.66 grams |
| Peptide YY fragment 3-36 human [PYY] | failed to have an effect | – | – | – | – | Post-treatment Food Intake (5 Hour) (Male C57B1/6 mice; [4]): 2.28 ± 0.25 grams; Change in Body weight % (Male C57B1/6 mice; [4]): −0.96 ± 0.50%; Change in Body weight (grams ± SEM) (Male C57B1/6 mice; [4]): −0.20 ± 0.10 grams; Post-treatment Body weight (Male C57B1/6 mice; [4]): 20.86 ± 0.33 grams |
| Cc1cccc(C)c1COc1cccc(CC(=O)NO)c1 [Compound CT, N-Hydroxy-2-[3-(2,6-dimethylbenzyloxy)phenyl]acetamide] | – | 5.4 ± 1.5 | strongly amplify the effect of concurrent rosiglitazone on adiponectin | did not elevate serum adiponectin levels | 235 ± 107 | – |
| Cc1cccc(C)c1COc1cccc(CC(=O)O)c1 [Compound CF, 3-(2,6-Dimethylbenzyloxy)phenylacetic acid] | – | 6.5 ± 2.0 | strongly amplify the effect of concurrent rosiglitazone on adiponectin | did not elevate serum adiponectin levels | 305 ± 75 | – |
| CCc1ccc(CCOc2ccc(CC3SC(=O)NC3=O)cc2)nc1 (centres unmarked) [PIO, pioglitazone hydrochloride] | – | – | – | – | – | Serum Glucose (mg/dL) Mean ± SD (db/db mice [2]; PIO 30 mg/kg): 550 ± 74 mg/dL; Serum Glucose (mg/dL) Mean ± SD (db/db mice [2]; PIO 100 mg/kg): 597 ± 228 mg/dL |

— patent US8338480B2, “Combination treatment of metabolic disorders” (Wellstat Therapeutics Corporation, priority 2006, dated 2012)
